Source: patent EP3228630A1, “COMBINATION OF AN APELIN ANTAGONIST AND AN ANGIOGENESIS INHIBITOR FOR THE TREATMENT OF CANCER” (IMBA-Institut für Molekulare Biotechnologie GmbH, priority 2016, dated 2017)

Tested on: primary human endothelial cells (HUVECs)
Details: Apelin Pyr13 500nM, human VEGF 25ng/mL, 5 minutes, serum-free media
Procedure: Antibody array pathway analysis: For the human phospho-kinase antibody array (R&D Systems), primary HUVEC (human umbilical vein endothelial cells) were cultured overnight with media supplemented with 0.75% of fetal bovine serum (FBS) followed by 15 minutes of media with 0.5%. The cells were then stimulated in serum-free media with either Apelin Pyr13 (BACHEM H-4568, 500nM), human VEGF (Peprotech, 25ng/mL), both of them or either for 5 minutes. 100 µg of cell lysate were added to the membrane and incubated overnight at 4°C with gentle agitation, following the manufacturer instructions. Films were scanned and the intensity of the bands quantified using ImageJ.

## apelin-13
  pathways regulated (phospho-antibody array): regulate similar pathways in endothelial cells
